Test results from US20250281621A1, “GPC3 APTAMERS AND VARIANTS AND USE THEREOF” (Guardian Therapeutics, LLC, priority 2020, published 2025).

Tested on: NCI-H446 xenograft
Conditions: 40 mg/kg, I.P. QD for 28 days

**Q.** How did the “% of body weight loss (Day 29)” value turn out when `CCc1c2c(nc3ccc(OC(=O)N4CCC(N5CCCCC5)CC4)cc13)-c1cc3c(c(=O)n1C2)COC(=O)[C@]3(O)CC` [Irinotecan, irinotecan] was run?
**A.** −5.29%
